According to PubChem BioAssay AID284 (DTP/NCI, 2004):
Several values for one entry are separate records, joined by “and”; a condition that tells them apart may be missing. Identical values can stand only once. Toxic doses and inconclusive results are not listed. Starred links: 1 amine or outer side, 2 acyl side, 3 side chain; linkers in the order of their positions; H or OH if unused. Positions of bridges follow the written chain, without caps; N, C: chain ends. Non-standard residues stand in square brackets, D forms with d. Residues, ends and D or L forms follow the SMILES beside them. Chains are numbered I, II in the order given. Actinocin(9to1) = Cc1c2oc3c(C)ccc(C(=O)[*:1])c3nc-2c(C(=O)[*:2])c(N)c1=O; aThr = C[C@H](O)[C@H](N)C(=O)O; NMeV = CN[C@H](C(=O)O)C(C)C; Sar = CNCC(=O)O

Test system: BDF1 mice, L1210/MTX-resistant leukemia ip, survival T/C
Assay: NCI In Vivo Anticancer Drug Screen. Data for tumor model L1210 Leukemia resistant to Methotrexate; NSC 740 (intraperitoneal) in B6D2F1 (BDF1) mice
Conditions: endpoint: mean survival time, higher = longer survival
Protocol: The antitumor activity of compounds was measured in mice bearing transplantable tumors. Survival or tumor size were measured and the results are expressed as the measurement made in the treated group (T) divided by the measurement made in the vehicle treated control group (C). The tumor model used in this assay is L1210 Leukemia resistant to Methotrexate; NSC 740 (intraperitoneal) in B6D2F1 (BDF1) mice

[1] = dose: 12.5 mg/kg/injection, schedule: Q01DX010 (ip), vehicle: saline
[2] = dose: 25.0 mg/kg/injection, schedule: Q01DX010 (ip), vehicle: saline

In the case of `CC[C@]1(O)C[C@H]2CN(CCc3c([nH]c4ccccc34)[C@@](C(=O)OC)(c3cc4c(cc3OC)N(C=O)[C@H]3[C@@](O)(C(=O)OC)[C@H](OC(C)=O)[C@]5(CC)C=CCN6CC[C@]43[C@@H]65)C2)C1`, the T/C (dose: 0.03 mg/kg/injection, schedule: Q01DX010 (ip), vehicle: saline) is reported as 94 % of control, the T/C (dose: 0.06 mg/kg/injection, schedule: Q01DX010 (ip), vehicle: saline) is reported as 106 % of control and the T/C (dose: 0.12 mg/kg/injection, schedule: Q01DX010 (ip), vehicle: saline) is reported as 95 % of control. The T/C (dose: 0.25 mg/kg/injection, schedule: Q01DX010 (ip), vehicle: saline) was 89 % of control.

In the case of `CN(C)C(=S)N=Nc1c(O)[nH]c2ccccc12`, the T/C (dose: 2.5 mg/kg/injection, schedule: Q01DX Z (ip), vehicle: carboxymethylcellulose (CMC)) is reported as 110 % of control, the T/C (dose: 5.0 mg/kg/injection, schedule: Q01DX Z (ip), vehicle: carboxymethylcellulose (CMC)) is reported as 106 % of control and the T/C (dose: 10.0 mg/kg/injection, schedule: Q01DX Z (ip), vehicle: carboxymethylcellulose (CMC)) is reported as 115 % of control. The T/C (dose: 20.0 mg/kg/injection, schedule: Q01DX Z (ip), vehicle: carboxymethylcellulose (CMC)) was 95 % of control, the T/C (dose: 50.0 mg/kg/injection, schedule: Q01DX Z (ip), vehicle: carboxymethylcellulose (CMC)) was 124 % of control and the T/C (dose: 100.0 mg/kg/injection, schedule: Q01DX Z (ip), vehicle: carboxymethylcellulose (CMC)) was 86 % of control.

For `O=C(CCBr)N1CCN(C(=O)CCBr)CC1`, the T/C (dose: 1.6 mg/kg/injection, schedule: Q01DX Z (ip), vehicle: methylcellulose (MC)) was 86 % of control, the T/C (dose: 3.2 mg/kg/injection, schedule: Q01DX Z (ip), vehicle: methylcellulose (MC)) was 90 % of control and the T/C (dose: 6.3 mg/kg/injection, schedule: Q01DX Z (ip), vehicle: methylcellulose (MC)) was 100 % of control.

With `C[C@H](N)C(=O)N[C@@H]1[C@H]2C(=C(O)C[C@@H](O)[C@@H]2O)C(=O)O[C@@H]1C` the T/C (dose: 500.0 mg/kg/injection, schedule: Q01DX Z (ip), vehicle: saline) was 120 % of control, the T/C (dose: 600.0 mg/kg/injection, schedule: Q01DX Z (ip), vehicle: saline) was 174 % of control and 187 % of control and the T/C (dose: 1000.0 mg/kg/injection, schedule: Q01DX Z (ip), vehicle: saline) was 102 % of control and 110 % of control. For the same compound, the T/C (dose: 1200.0 mg/kg/injection, schedule: Q01DX Z (ip), vehicle: saline) was 121 % of control and 122 % of control.

In the case of `O=C(Nc1ccc(C2=NCCN2)cc1)c1ccc(C(=O)Nc2ccc(C3=NCCN3)cc2)c([N+](=O)[O-])c1`, the T/C (dose: 6.0 mg/kg/injection, schedule: Q01DX010 (ip), vehicle: saline) is reported as 259 % of control, the T/C (dose: 6.3 mg/kg/injection, schedule: Q01DX Z (ip), vehicle: saline) is reported as 122 % of control and the T/C (dose: 8.0 mg/kg/injection, schedule: Q01DX010 (ip), vehicle: saline) is reported as 284 % of control. The T/C (dose: 12.0 mg/kg/injection, schedule: Q01DX010 (ip), vehicle: saline) was 201 % of control, the T/C (dose: 12.5 mg/kg/injection, schedule: Q01DX Z (ip), vehicle: saline) was 97 % of control and the T/C (dose: 18.0 mg/kg/injection, schedule: Q01DX010 (ip), vehicle: saline) was 107 % of control. The T/C (dose: 25.0 mg/kg/injection, schedule: Q01DX Z (ip), vehicle: saline) was 116 % of control and 96 % of control.

With `Cc1c2oc3c(C)ccc(C(=O)N[C@@H]4C(=O)N[C@H](C(C)C)C(=O)N5CCC[C@H]5C(=O)N(C)CC(=O)N(C)[C@@H](C(C)C)C(=O)O[C@H]4C)c3nc-2c(C(=O)N[C@@H]2C(=O)N[C@H](C(C)C)C(=O)N3CCC[C@H]3C(=O)N(C)CC(=O)N(C)[C@@H](C(C)C)C(=O)O[C@H]2C)c(N)c1=O` (I: [aThr][dV]P[Sar][NMeV] / II: [aThr][dV]P[Sar][NMeV]; ester I:1-I:C, II:1-II:C; linker I:N-II:N via Actinocin(9to1)) the T/C (dose: 12.0 micrograms/kg/injection, schedule: Q01DX Z (ip), vehicle: saline) was 157 % of control, the T/C (dose: 12.5 micrograms/kg/injection, schedule: Q01DX Z (ip), vehicle: saline) was 103 % of control and the T/C (dose: 32.0 micrograms/kg/injection, schedule: Q01DX Z (ip), vehicle: saline) was 92 % of control and 104 % of control. For the same compound, the T/C (dose: 50.0 micrograms/kg/injection, schedule: Q01DX Z (ip), vehicle: saline) was 114 % of control and 117 % of control, the T/C (dose: 63.0 micrograms/kg/injection, schedule: Q01DX Z (ip), vehicle: saline) was 98 % of control and 104 % of control and the T/C (dose: 125.0 micrograms/kg/injection, schedule: Q01DX Z (ip), vehicle: saline) was 117 % of control and 101 % of control.

With `O=NN(CCCl)C(=O)NCCCl` the T/C [1] was 113 % of control and the T/C [2] was 87 % of control and 91 % of control.

With `O=c1cn[nH]c(=O)[nH]1` the T/C (dose: 125.0 mg/kg/injection, schedule: Q01DX010 (ip), vehicle: saline) was 93 % of control, the T/C (dose: 250.0 mg/kg/injection, schedule: Q01DX010 (ip), vehicle: saline) was 91 % of control and 97 % of control and the T/C (dose: 500.0 mg/kg/injection, schedule: Q01DX010 (ip), vehicle: saline) was 86 % of control and 90 % of control.

For `O=c1[nH]c(=O)n(C2CC(O)C(CO)O2)cc1Br` (stereo not given), the T/C (dose: 3.75 mg/kg/injection, schedule: Q01DX Z (ip), vehicle: carboxymethylcellulose (CMC)) was 93 % of control, the T/C (dose: 7.5 mg/kg/injection, schedule: Q01DX Z (ip), vehicle: carboxymethylcellulose (CMC)) was 120 % of control and the T/C (dose: 15.0 mg/kg/injection, schedule: Q01DX Z (ip), vehicle: carboxymethylcellulose (CMC)) was 113 % of control. The T/C (dose: 30.0 mg/kg/injection, schedule: Q01DX Z (ip), vehicle: carboxymethylcellulose (CMC)) was 104 % of control.

For `Cn1cnc([N+](=O)[O-])c1Sc1nc(N)nc2nc[nH]c12`, the T/C (dose: 1.0 mg/kg/injection, schedule: Q01DX Z (ip), vehicle: methylcellulose (MC)) was 92 % of control, the T/C (dose: 2.0 mg/kg/injection, schedule: Q01DX Z (ip), vehicle: methylcellulose (MC)) was 96 % of control and the T/C (dose: 4.0 mg/kg/injection, schedule: Q01DX Z (ip), vehicle: methylcellulose (MC)) was 109 % of control.

For `S=P(N1CCCC1)(N1CC1)N1CC1`, the T/C (dose: 0.03 mg/kg/injection, schedule: Q01DX Z (ip), vehicle: methylcellulose (MC)) was 93 % of control, the T/C (dose: 0.05 mg/kg/injection, schedule: Q01DX Z (ip), vehicle: methylcellulose (MC)) was 91 % of control and the T/C (dose: 0.1 mg/kg/injection, schedule: Q01DX Z (ip), vehicle: methylcellulose (MC)) was 99 % of control.

For `N[C@@H](Cc1ccc(N(CCCl)CCCl)cc1)C(=O)O`, the T/C (dose: 0.5 mg/kg/injection, schedule: Q01DX Z (ip), vehicle: carboxymethylcellulose (CMC)) was 114 % of control, the T/C (dose: 1.0 mg/kg/injection, schedule: Q01DX Z (ip), vehicle: carboxymethylcellulose (CMC)) was 100 % of control and the T/C (dose: 2.0 mg/kg/injection, schedule: Q01DX Z (ip), vehicle: carboxymethylcellulose (CMC)) was 110 % of control. The T/C (dose: 3.0 mg/kg/injection, schedule: Q01DX Z (ip), vehicle: carboxymethylcellulose (CMC)) was 114 % of control, the T/C (dose: 4.0 mg/kg/injection, schedule: Q01DX Z (ip), vehicle: carboxymethylcellulose (CMC)) was 107 % of control and the T/C (dose: 6.0 mg/kg/injection, schedule: Q01DX Z (ip), vehicle: carboxymethylcellulose (CMC)) was 97 % of control. For the same compound, the T/C (dose: 8.0 mg/kg/injection, schedule: Q01DX Z (ip), vehicle: carboxymethylcellulose (CMC)) was 86 % of control.

`CC/C(=C(/CC)c1ccc(O)cc1)c1ccc(O)cc1` was tested, and the T/C [1] was 94 % of control, the T/C (dose: 12.5 mg/kg/injection, schedule: Q01DX010 (sc), vehicle: steriod suspending solution) was 92 % of control and the T/C [2] was 94 % of control. For the same compound, the T/C (dose: 50.0 mg/kg/injection, schedule: Q01DX010 (sc), vehicle: steriod suspending solution) was 89 % of control and the T/C (dose: 100.0 mg/kg/injection, schedule: Q01DX010 (sc), vehicle: steriod suspending solution) was 86 % of control and 87 % of control.

With `N#[N+]c1cnc([O-])[nH]c1=O` the T/C (dose: 0.16 mg/kg/injection, schedule: Q01DX Z (ip), vehicle: methylcellulose (MC)) was 106 % of control, the T/C (dose: 0.32 mg/kg/injection, schedule: Q01DX Z (ip), vehicle: methylcellulose (MC)) was 103 % of control and the T/C (dose: 0.63 mg/kg/injection, schedule: Q01DX Z (ip), vehicle: methylcellulose (MC)) was 100 % of control.

`C[N+](C)(C)c1ncnc2nc[nH]c12` was tested, and the T/C (dose: 15.0 mg/kg/injection, schedule: Q01DX010 (ip), vehicle: saline) was 94 % of control.

With `CN(C)c1nc(N(C)C)nc(N(C)C)n1` the T/C (dose: 0.5 mg/kg/injection, schedule: Q01DX Z (ip), vehicle: other) was 93 % of control, the T/C (dose: 1.0 mg/kg/injection, schedule: Q01DX Z (ip), vehicle: other) was 103 % of control and the T/C (dose: 4.0 mg/kg/injection, schedule: Q01DX Z (ip), vehicle: other) was 109 % of control. The T/C (dose: 18.8 mg/kg/injection, schedule: Q01DX010 (ip), vehicle: saline) was 109 % of control, the T/C (dose: 37.5 mg/kg/injection, schedule: Q01DX010 (ip), vehicle: saline) was 105 % of control and the T/C (dose: 75.0 mg/kg/injection, schedule: Q01DX010 (ip), vehicle: saline) was 93 % of control. The T/C (dose: 87.5 mg/kg/injection, schedule: Q01DX Z (ip), vehicle: other) was 101 % of control, the T/C (dose: 150.0 mg/kg/injection, schedule: Q01DX010 (ip), vehicle: saline) was 104 % of control and the T/C (dose: 175.0 mg/kg/injection, schedule: Q01DX Z (ip), vehicle: other) was 94 % of control.
